Data as given in PubChem BioAssay AID1259411 (Chemical Carcinogenesis Research Information System (CCRIS), 2018).
The source made the active and inactive calls. How the calls were made is not given here.

Test system: rodent carcinogenicity bioassays, tumor incidence
Experiment: CCRIS carcinogenicity studies
Details: Route: Oral, Dose: 0, Dose: 0
Procedure, shortened: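 Archive of carcinogenicity, mutagenicity, tumor promotion and tumor inhibition results drawn from journals, NCI reports and other sources, expert-reviewed; covers 1985-2011 and is no longer updated.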

Measured: carcinogen call

C#CCN1CC(=O)N(COC(=O)C2C(C=C(C)C)C2(C)C)C1=O (centres undefined)
inactive: Species: Mouse, Strain/Sex: Crj:CD-1 (ICR)/Female (51/Group), 100, 3500, 7000 ppm of 92.9% imiprothrin in diet for 78 wk, study duration 78 wk, 100, 3500, 7000 ppm of 92.9% imiprothrin in diet for 78 wk, study duration 78 wk inactive; negative | Species: Mouse, Strain/Sex: Crj:CD-1 (ICR)/Male (51/Group), 100, 3500, 7000 ppm of 92.9% imiprothrin in diet for 78 wk, study duration 78 wk, 100, 3500, 7000 ppm of 92.9% imiprothrin in diet for 78 wk, study duration 78 wk inactive; negative | Species: Rat, Strain/Sex: Sprague-Dawley/Female (50/Group), 50, 250, 2500, 5000 ppm of 92.9% imiprothrin in diet for 104 wk, study duration 104 wk, 50, 250, 2500, 5000 ppm of 92.9% imiprothrin in diet for 104 wk, study duration 104 wk inactive; negative | Species: Rat, Strain/Sex: Sprague-Dawley/Male (50/Group), 50, 250, 2500, 5000 ppm of 92.9% imiprothrin in diet for 104 wk, study duration 104 wk, 50, 250, 2500, 5000 ppm of 92.9% imiprothrin in diet for 104 wk, study duration 104 wk inactive; negative
